Test results: ChEMBL document CHEMBL2407081, “Discovery of potent, isoform-selective inhibitors of histone deacetylase containing chiral heterocyclic capping groups and a N-(2-aminophenyl)benzamide binding unit” (J Med Chem, 2013)

Assays:
[1] = target: T1, Protein deacetylase HDAC6 (Homo sapiens, UniProt Q9UBN7); experiment: Inhibition of recombinant His-tagged HDAC6 (unknown origin) using Fluor-de-Lys SIRT1 as substrate incubated for 3 hrs prior to substrate addition measured after 60 mins by fluorescence plate reader analysis
T1 sequence (Q9UBN7 whole entry): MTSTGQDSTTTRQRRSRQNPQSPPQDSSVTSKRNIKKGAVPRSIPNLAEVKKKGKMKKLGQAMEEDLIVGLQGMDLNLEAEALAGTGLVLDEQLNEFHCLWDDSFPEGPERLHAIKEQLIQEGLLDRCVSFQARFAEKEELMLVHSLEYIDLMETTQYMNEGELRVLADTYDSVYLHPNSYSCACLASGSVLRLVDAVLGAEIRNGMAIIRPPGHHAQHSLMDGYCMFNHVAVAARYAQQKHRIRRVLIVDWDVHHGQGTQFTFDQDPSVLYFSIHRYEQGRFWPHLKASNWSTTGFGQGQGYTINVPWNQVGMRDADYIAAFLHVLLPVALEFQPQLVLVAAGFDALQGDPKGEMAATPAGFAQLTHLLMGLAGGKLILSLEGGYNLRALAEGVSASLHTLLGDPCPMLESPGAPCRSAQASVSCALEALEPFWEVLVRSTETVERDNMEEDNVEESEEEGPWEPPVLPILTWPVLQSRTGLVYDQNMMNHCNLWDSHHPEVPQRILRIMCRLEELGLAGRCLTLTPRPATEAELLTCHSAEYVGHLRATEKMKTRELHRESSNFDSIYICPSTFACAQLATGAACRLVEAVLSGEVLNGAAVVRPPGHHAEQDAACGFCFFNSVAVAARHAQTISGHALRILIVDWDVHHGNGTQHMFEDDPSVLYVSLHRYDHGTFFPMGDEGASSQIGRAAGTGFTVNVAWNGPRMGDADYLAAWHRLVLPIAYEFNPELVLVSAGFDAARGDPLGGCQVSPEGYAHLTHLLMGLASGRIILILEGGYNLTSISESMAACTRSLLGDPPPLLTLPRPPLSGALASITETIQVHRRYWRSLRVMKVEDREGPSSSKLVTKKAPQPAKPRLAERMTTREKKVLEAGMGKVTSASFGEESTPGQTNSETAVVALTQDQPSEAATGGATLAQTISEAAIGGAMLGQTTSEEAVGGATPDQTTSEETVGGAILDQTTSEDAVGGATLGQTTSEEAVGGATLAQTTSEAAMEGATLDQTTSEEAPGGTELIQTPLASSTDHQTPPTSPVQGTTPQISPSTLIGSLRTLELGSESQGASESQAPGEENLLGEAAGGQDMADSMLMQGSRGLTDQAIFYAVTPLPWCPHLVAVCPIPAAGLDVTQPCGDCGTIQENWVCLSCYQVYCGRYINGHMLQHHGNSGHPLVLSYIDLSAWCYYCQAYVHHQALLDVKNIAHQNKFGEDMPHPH

Histone deacetylase 2 = Histone deacetylase 2 (Homo sapiens, UniProt Q92769); experiment: Inhibition of recombinant His-tagged HDAC2 (1 to 488) (unknown origin) using MAL as substrate incubated for 3 hrs prior to substrate addition measured after 60 mins by fluorescence plate reader analysis
Histone deacetylase 2, sequence (Q92769 whole entry): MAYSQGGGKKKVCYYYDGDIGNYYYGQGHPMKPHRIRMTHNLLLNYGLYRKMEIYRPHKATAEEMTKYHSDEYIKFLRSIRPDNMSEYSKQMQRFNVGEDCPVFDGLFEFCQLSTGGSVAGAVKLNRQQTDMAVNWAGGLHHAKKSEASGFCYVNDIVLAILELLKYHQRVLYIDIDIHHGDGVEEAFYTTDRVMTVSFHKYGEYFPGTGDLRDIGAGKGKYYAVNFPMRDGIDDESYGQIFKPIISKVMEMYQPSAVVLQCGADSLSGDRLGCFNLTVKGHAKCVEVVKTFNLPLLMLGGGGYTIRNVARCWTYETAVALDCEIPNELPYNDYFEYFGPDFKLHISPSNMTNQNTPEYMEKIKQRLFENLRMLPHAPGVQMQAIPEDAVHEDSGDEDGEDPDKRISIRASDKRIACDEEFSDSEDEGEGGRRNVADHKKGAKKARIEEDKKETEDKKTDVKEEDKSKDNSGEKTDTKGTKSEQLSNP

Histone deacetylase 8 = target: T2, Histone deacetylase 8 (Homo sapiens, UniProt Q9BY41); experiment: Inhibition of recombinant HDAC8 (unknown origin) expressed in Escherichia coli BL21 using MAL as substrate incubated for 15 mins prior to substrate addition measured after 60 mins by fluorescence plate reader analysis
T2 sequence (Q9BY41 whole entry): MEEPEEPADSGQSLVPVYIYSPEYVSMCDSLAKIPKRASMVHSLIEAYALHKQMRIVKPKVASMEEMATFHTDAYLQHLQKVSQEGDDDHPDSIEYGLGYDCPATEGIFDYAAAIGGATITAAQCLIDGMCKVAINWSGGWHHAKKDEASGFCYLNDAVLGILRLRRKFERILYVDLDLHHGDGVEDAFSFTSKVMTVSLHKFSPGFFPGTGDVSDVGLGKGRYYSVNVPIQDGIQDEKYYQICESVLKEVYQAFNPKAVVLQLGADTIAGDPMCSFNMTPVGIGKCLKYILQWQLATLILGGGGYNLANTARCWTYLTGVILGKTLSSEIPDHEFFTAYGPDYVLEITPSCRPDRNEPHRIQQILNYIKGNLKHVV

[2] = target: Histone deacetylase 3/NCoR1 (Homo sapiens, UniProt O15379); experiment: Inhibition of recombinant HDAC3-NCoR1 (unknown origin) using MAL as substrate incubated for 3 hrs prior to substrate addition measured after 60 mins by fluorescence plate reader analysis; type: protein-complex assay
Histone deacetylase 3/NCoR1, sequence (O15379 whole entry): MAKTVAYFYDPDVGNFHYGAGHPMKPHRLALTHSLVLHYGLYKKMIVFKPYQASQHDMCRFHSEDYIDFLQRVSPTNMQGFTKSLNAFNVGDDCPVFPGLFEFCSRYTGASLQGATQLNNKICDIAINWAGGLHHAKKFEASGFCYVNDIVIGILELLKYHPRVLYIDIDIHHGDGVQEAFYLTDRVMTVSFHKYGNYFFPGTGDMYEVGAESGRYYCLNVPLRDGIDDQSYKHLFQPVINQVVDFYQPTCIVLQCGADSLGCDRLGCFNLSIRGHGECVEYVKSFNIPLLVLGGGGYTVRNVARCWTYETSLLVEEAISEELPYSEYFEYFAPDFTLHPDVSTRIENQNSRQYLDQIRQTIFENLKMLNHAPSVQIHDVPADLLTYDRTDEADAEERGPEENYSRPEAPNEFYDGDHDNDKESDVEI
Histone deacetylase 3/NCoR1, sequence (O75376 whole entry, further chain): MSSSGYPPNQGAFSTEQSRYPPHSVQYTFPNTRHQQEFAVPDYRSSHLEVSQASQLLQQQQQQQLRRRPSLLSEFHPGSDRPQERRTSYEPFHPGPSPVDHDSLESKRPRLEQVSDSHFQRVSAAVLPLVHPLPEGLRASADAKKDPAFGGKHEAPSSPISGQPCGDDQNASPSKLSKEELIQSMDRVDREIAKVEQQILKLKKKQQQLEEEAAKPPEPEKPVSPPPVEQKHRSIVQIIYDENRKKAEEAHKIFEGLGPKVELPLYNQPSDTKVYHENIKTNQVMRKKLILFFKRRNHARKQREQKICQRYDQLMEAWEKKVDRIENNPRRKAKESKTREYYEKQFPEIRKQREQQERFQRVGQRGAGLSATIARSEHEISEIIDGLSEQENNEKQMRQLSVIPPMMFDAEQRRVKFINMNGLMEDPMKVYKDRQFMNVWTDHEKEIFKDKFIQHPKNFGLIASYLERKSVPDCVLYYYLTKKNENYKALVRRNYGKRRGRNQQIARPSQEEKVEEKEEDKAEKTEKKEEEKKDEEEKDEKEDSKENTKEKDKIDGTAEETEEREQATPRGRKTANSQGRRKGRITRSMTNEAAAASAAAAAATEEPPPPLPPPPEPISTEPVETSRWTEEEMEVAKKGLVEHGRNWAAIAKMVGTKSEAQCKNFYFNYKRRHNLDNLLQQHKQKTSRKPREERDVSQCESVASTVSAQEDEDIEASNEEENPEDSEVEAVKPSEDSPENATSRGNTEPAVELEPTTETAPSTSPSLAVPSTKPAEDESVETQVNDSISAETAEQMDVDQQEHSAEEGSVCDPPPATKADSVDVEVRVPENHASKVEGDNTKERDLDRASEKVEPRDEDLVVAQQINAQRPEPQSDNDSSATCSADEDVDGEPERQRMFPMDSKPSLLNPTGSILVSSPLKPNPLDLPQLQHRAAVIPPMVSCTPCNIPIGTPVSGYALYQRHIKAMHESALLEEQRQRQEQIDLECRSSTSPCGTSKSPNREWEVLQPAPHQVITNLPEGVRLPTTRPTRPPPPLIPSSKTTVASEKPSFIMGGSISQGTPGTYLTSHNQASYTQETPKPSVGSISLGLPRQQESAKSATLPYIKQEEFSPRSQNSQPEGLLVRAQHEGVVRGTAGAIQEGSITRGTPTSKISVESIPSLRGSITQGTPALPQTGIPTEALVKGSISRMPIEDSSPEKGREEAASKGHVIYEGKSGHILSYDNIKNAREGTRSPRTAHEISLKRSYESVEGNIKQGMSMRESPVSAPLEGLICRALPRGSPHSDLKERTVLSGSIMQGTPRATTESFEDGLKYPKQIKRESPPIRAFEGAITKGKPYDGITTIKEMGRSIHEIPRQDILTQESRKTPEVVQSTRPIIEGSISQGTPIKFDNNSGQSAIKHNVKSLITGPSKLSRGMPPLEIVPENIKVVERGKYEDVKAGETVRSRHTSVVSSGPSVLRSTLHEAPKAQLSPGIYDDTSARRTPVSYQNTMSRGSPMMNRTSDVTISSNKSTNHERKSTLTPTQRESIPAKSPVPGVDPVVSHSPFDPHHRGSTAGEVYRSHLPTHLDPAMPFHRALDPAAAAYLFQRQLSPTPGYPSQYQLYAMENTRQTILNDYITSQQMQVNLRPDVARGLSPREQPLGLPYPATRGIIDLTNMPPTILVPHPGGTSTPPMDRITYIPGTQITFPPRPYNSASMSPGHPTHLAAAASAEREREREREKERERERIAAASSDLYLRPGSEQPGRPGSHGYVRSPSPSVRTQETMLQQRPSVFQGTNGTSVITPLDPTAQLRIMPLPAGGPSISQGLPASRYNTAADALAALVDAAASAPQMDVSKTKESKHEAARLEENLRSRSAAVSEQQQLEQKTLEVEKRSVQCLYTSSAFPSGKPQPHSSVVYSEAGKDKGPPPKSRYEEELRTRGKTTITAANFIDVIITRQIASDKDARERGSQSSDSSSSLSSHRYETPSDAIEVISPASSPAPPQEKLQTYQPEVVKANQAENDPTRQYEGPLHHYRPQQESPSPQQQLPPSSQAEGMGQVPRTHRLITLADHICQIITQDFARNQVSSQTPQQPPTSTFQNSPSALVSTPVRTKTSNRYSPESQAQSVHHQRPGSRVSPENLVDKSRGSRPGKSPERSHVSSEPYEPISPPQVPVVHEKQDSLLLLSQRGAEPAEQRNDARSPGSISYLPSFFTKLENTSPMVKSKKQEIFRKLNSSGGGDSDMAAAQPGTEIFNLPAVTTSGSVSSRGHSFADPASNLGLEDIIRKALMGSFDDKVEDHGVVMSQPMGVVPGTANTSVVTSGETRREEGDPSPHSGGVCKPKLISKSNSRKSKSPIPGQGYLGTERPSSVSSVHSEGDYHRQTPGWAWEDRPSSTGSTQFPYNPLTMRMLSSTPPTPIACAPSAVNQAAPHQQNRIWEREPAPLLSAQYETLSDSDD

A549 = experiment: Cytotoxicity against human A549 cells assessed as growth inhibition by measuring cellular ATP level after 72 hrs by cell-titer glo assay; type: functional, cell-based; details: A549, 72 h
MCF7 = experiment: Cytotoxicity against human MCF7 cells assessed as growth inhibition by measuring cellular ATP level after 72 hrs by cell-titer glo assay; type: functional, cell-based; details: MCF7, 72 h
Histone deacetylase 1 = Histone deacetylase 1 (Homo sapiens, UniProt Q13547); experiment: Inhibition of recombinant C-terminal FLAG-tagged HDAC1 (unknown origin) expressed in Escherichia coli BL21 using MAL as substrate incubated for 1 hr prior to substrate addition measured after 60 mins by fluorescence plate reader analysis
Histone deacetylase 1, sequence (Q13547 whole entry): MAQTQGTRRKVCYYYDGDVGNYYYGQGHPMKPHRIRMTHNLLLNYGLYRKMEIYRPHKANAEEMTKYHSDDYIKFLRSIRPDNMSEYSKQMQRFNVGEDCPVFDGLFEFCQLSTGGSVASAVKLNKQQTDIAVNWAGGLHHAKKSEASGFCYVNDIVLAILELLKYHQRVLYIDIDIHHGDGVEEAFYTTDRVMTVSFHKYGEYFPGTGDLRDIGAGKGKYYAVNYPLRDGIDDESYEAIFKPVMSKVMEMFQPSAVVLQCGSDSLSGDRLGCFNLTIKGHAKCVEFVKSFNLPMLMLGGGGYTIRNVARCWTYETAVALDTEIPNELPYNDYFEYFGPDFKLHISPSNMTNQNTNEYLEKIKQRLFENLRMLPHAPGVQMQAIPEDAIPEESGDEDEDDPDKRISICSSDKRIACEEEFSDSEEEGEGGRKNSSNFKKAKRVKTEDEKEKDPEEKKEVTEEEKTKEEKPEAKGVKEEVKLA

HCT-116 = experiment: Cytotoxicity against human HCT116 cells assessed as growth inhibition by measuring cellular ATP level after 72 hrs by cell-titer glo assay; type: functional, cell-based; details: HCT-116, 72 h
DU-145 = experiment: Cytotoxicity against human DU145 cells assessed as growth inhibition by measuring cellular ATP level after 72 hrs by cell-titer glo assay; type: functional, cell-based; details: DU-145, 72 h

IC50 [1] | IC50 (Histone deacetylase 2) | IC50 (Histone deacetylase 8) | IC50 [2] | IC50 (Histone deacetylase 1) | Compound | IC50 (A549) | IC50 (MCF7) | IC50 (HCT-116) | IC50 (DU-145)
> 20000 nM | 116 nM | 24300 nM | 70 nM | – | CC(=O)N1C(NCc2ccc(C(=O)Nc3ccccc3N)cc2)=NC(=O)C1Cc1c[nH]c2ccccc12 (racemic) | – | – | – | –
– | – | – | – | – | O=C(CCCCCCC(=O)Nc1ccccc1)NO [VORINOSTAT] | 2270 nM | 2290 nM | – | –
– | 44 nM | 15000 nM | 16 nM | 180 nM | Nc1ccccc1NC(=O)c1ccc(CNC2=N[C@@H](c3ccc(O)cc3)CS2)cc1 | – | – | – | –
– | 538 nM | 12600 nM | 388 nM | – | Nc1ccccc1NC(=O)c1ccc(CN=C2N[C@@H](c3ccccc3)[C@H](c3ccccc3)S2)cc1 | – | – | – | –
> 20000 nM | > 20000 nM | > 20000 nM | 630 nM | – | Nc1cc2ccccc2cc1NC(=O)c1ccc(CNc2nccc(-c3cccnc3)n2)cc1 | – | – | – | –
> 20000 nM | 580 nM | > 20000 nM | 509 nM | – | Nc1ccccc1NC(=O)c1ccc(CSC2=N[C@@H](Cc3ccccc3)CS2)cc1 | – | – | – | –
> 20000 nM | > 20000 nM | > 20000 nM | 4720 nM | – | Nc1cc(Br)ccc1NC(=O)c1ccc(CNc2nccc(-c3cccnc3)n2)cc1 | – | – | – | –
> 20000 nM | 66 nM | 13000 nM | 30 nM | – | Nc1ccccc1NC(=O)c1ccc(CNC2=NC(=O)C(Cc3ccccc3)N2)cc1 (racemic) | > 50000 nM | > 50000 nM | 16600 nM | > 50000 nM
> 20000 nM | 78 nM | > 20000 nM | 104 nM | 190 nM | Nc1ccccc1NC(=O)c1ccc(CNC2=NC(=O)C(Cc3c[nH]c4ccccc34)N2)cc1 (racemic) | – | – | – | –
> 20000 nM | 248 nM | > 20000 nM | 111 nM | – | COc1ccc(NC(=O)c2ccc(CNc3nccc(-c4cccnc4)n3)cc2)c(N)c1 | – | – | – | –
> 20000 nM | 104 nM | 34900 nM | 52 nM | 920 nM | Nc1ccccc1NC(=O)c1ccc(CNC2=N[C@@H](Cc3ccccc3)CS2)cc1 | 6370 nM | 3090 nM | 1950 nM | 5450 nM
> 20000 nM | 82 nM | 12700 nM | 36 nM | 410 nM | Nc1ccccc1NC(=O)c1ccc(CN=C2N[C@H](Cc3ccccc3)CS2)cc1 | – | – | – | –
– | 81 nM | 2300 nM | 12 nM | 550 nM | Nc1ccccc1NC(=O)c1ccc(CN=C2NC[C@H](c3ccccc3)S2)cc1 | – | – | – | –
> 20000 nM | > 20000 nM | > 20000 nM | > 20000 nM | – | Nc1cc(CO)ccc1NC(=O)c1ccc(CNc2nccc(-c3cccnc3)n2)cc1 | – | – | – | –
> 20000 nM | > 20000 nM | > 20000 nM | > 20000 nM | – | CC(C)(C)[Si](C)(C)OCc1ccc(NC(=O)c2ccc(CNc3nccc(-c4cccnc4)n3)cc2)c(N)c1 | – | – | – | –
> 20000 nM | 48 nM | 27200 nM | 40 nM | 500 nM | CC(C)(C)OC(=O)N1C(NCc2ccc(C(=O)Nc3ccccc3N)cc2)=NC(=O)C1Cc1c[nH]c2ccccc12 (racemic) | – | – | – | –
> 20000 nM | 440 nM | 5160 nM | 63 nM | – | Nc1ccccc1NC(=O)c1ccc(CSC2=N[C@@H](c3ccccc3)CS2)cc1 | – | – | – | –
– | 425 nM | 14900 nM | 287 nM | – | Nc1ccccc1NC(=O)c1ccc(CNC2=N[C@H](c3ccccc3)[C@@H](c3ccccc3)S2)cc1 | – | – | – | –
> 20000 nM | 260 nM | 22700 nM | 83 nM | – | CC(=O)N1C(NCc2ccc(C(=O)Nc3ccccc3N)cc2)=NC(=O)C1Cc1ccccc1 (racemic) | – | – | – | –
> 20000 nM | 56 nM | 10700 nM | 79 nM | 370 nM | Nc1ccccc1NC(=O)c1ccc(CN=C2N[C@H](c3ccccc3)CS2)cc1 | – | – | – | –
> 20000 nM | 920 nM | > 20000 nM | 890 nM | – | Nc1ccccc1NC(=O)c1ccc(CSC2=N[C@@H](Cc3c[nH]c4ccccc34)CS2)cc1 | 9530 nM | 9910 nM | 3640 nM | 2800 nM
> 20000 nM | > 20000 nM | > 20000 nM | > 20000 nM | – | Nc1cc(C(=O)O)ccc1NC(=O)c1ccc(CNc2nccc(-c3cccnc3)n2)cc1 | – | – | – | –
– | 111 nM | 1400 nM | 23 nM | – | Nc1ccccc1NC(=O)c1ccc(CNC2=NC[C@@H](c3ccccc3)S2)cc1 | – | – | – | –
> 20000 nM | 1430 nM | > 20000 nM | 719 nM | – | Nc1cc(O)ccc1NC(=O)c1ccc(CNc2nccc(-c3cccnc3)n2)cc1 | – | – | – | –
> 20000 nM | 16700 nM | > 20000 nM | > 20000 nM | – | Nc1cc(-c2ccccc2)ccc1NC(=O)c1ccc(CNc2nccc(-c3cccnc3)n2)cc1 | – | – | – | –
> 20000 nM | > 20000 nM | > 20000 nM | > 20000 nM | – | Nc1cc(C(=O)OCc2ccccc2)ccc1NC(=O)c1ccc(CNc2nccc(-c3cccnc3)n2)cc1 | – | – | – | –
